Experimental data reported in ChEMBL document CHEMBL1629414, “A neuroprotective sulfone of marine origin and the in vivo anti-inflammatory activity of an analogue” (Eur J Med Chem, 2010).
Active and inactive are the calls of the source. No cut-off for these calls is given here.

Experiments:
SH-SY5Y [1] = test: Neuroprotective activity in human SH-SY5Y cells assessed as protection against 6-OHDA-induced cytotoxicity at 1 uM pretreated 1 hr before 6-OHDA challenge measured after 15 hrs by Alamar blue assay; assay type: functional, cell-based
RAW264.7 [2] = test: Antiinflammatory activity in mouse RAW264.7 cells assessed as inhibition of LPS-induced expression of iNOS after treated 10 mins before LPS challenge measured after 16 hrs by Western blotting; assay type: functional, cell-based
RAW264.7 [3] = test: Antiinflammatory activity in mouse RAW264.7 cells assessed as inhibition of LPS-induced expression of COX-2 treated 10 mins before LPS challenge measured after 16 hrs by Western blotting; assay type: functional, cell-based
RAW264.7 [4] = test: Cytotoxicity against mouse RAW264.7 cells assessed as inhibition of beta-actin expression at 50 uM by Western blotting; assay type: cell-based; conditions: raw264.7, 50 µM
Rattus norvegicus [5] = test: Antinociceptive activity in chronic constriction injury neuropathic pain Wistar rat model assessed as reduction of paw withdrawal latency at 0.1 to 5 ug, administered intrathecally after 20 mins; assay type: functional, organism-based
Rattus norvegicus [6] = test: Antiatherosclerotic activity against balloon injury-induced angioplasty in Wistar rat assessed as inhibition of neointimal proliferation at 3 mg/kg/day, sc relative to control; assay type: functional; parameters: scale not given: the % may be the effect or the level left; conditions: route subcutaneous
Rattus norvegicus [7] = test: Protection against encephalomyelitis-induced clinical signs in Lewis rat preimmunized with Freund's complete adjuvant at 30 ug/kg, administered intrathecally bid for 5 days from day 7 after immunization; assay type: functional, organism-based
Rattus norvegicus [8] = test: Antinociceptive activity in chronic constriction injury neuropathic pain Wistar rat model assessed as reduction of paw withdrawal latency at 5 ug, administered intrathecally after 20 to 120 mins; assay type: functional, organism-based
Rattus norvegicus [9] = test: Antinociceptive activity in intrathecally dosed chronic constriction injury neuropathic pain Wistar rat model assessed as reduction of paw withdrawal latency measured up to 120 mins; assay type: functional
Rattus norvegicus [10] = test: Toxicity in chronic constriction injury neuropathic pain Wistar rat model assessed as effect on locomotor activity at 0.1 to 5 ug, administered intrathecally; assay type: organism-based; conditions: in vivo, icv_or_intrathecal
Rattus norvegicus [11] = test: Toxicity in Lewis rat assessed as neurological deffects at 30 ug/kg, administered intrathecally bid for 5 days; assay type: organism-based; conditions: in vivo, icv_or_intrathecal, 0.03 mg/kg, 120 h
RAW264.7 [12] = test: Cytotoxicity against mouse RAW264.7 cells assessed as inhibition of beta-actin expression at 30 uM by Western blotting; assay type: cell-based; conditions: raw264.7, 30 µM
[13] = Solubility of the compound in water; assay type: physicochemical
SH-SY5Y [14] = test: Neuroprotective activity in human SH-SY5Y cells assessed as protection against 6-OHDA-induced cytotoxicity pretreated 1 hr before 6-OHDA challenge measured after 15 hrs by Alamar blue assay; assay type: functional
RAW264.7 [15] = test: Antiinflammatory activity in mouse RAW264.7 cells assessed as inhibition of LPS-induced expression of iNOS at 10 uM treated 10 mins before LPS challenge measured after 16 hrs by Western blotting relative to control; assay type: functional; parameters: scale not given: the % may be the effect or the level left
RAW264.7 [16] = test: Antiinflammatory activity in mouse RAW264.7 cells assessed as inhibition of LPS-induced expression of COX2 at 10 uM treated 10 mins before LPS challenge measured after 16 hrs by Western blotting relative to control; assay type: functional; parameters: scale not given: the % may be the effect or the level left

## CC(=O)CCS(=O)(=O)CCO
SH-SY5Y [1]
  Activity: inactive
RAW264.7 [2]
  IC50: 3.6 µM
RAW264.7 [3]
  IC50: 32.1 µM
RAW264.7 [4]
  Activity: Toxic
Rattus norvegicus [5]
  Activity: Active
Rattus norvegicus [6]
  Activity: 98.1%
Rattus norvegicus [7]
  Activity: Active
Rattus norvegicus [8]
  Activity: Active
Rattus norvegicus [9]
  ED50: 0.75 µg
Rattus norvegicus [10]
  Activity: Non-toxic
Rattus norvegicus [11]
  Activity: Non-toxic

## C=CS(=O)(=O)CCC(C)=O [AUSTRASULFONE]
RAW264.7 [12]
  Activity: Toxic
[13]
  solubility: > 50 mg/mL
SH-SY5Y [14]
  Activity: Dose-dependent effect
SH-SY5Y [14]; read-out: ED50 (the source's name)
  EC50: 0.011 µM

## CC(=O)CCSCCO
RAW264.7 [15]
  Activity: 59.5%
RAW264.7 [16]
  Activity: 91.2%
